Patent US20060094031A1, “Alpha-L-arabinofuranosidase histochemical reporter gene assay” (Stowers Institute for Medical Research, priority 2004, published 2006)
“Also recorded” adds a separate entry of the source.

Assays:
[1] = tested on: β-galactosidase (lacZ) expressed in NIH 3T3 cells; settings: for color of cells expressing lacZ after staining with the substrate: histochemical staining
Method: (§1) FIG. 1 depicts a schematic of the CMV abfA expression vector. […] NIH 3T3 cells were transfected with CMV-abfA and 30 hours later were fixed with 2% formaldehyde, 0.2% glutaraldehyde for 5 minutes and then processed for histochemical detection of abfA expression using a standard protocol for lacZ detection (5), but substituting Z-ara (0.02%) for X-gal. The synthesis for Z-ara is described in Example 3. Just like X-gal, Z-ara is a colorless water-soluable chromogen that forms an insoluable blue precipitate upon hydrolysis. […] Alternative β-galactosidase substrates to X-gal, 6-chloro-3-indolyl-β-D-galactopyranaside (“Red-gal,” Research Organics, Cleveland, Ohio, USA) and 5-bromo-6-chloro-3-indolyl-β-D-galactopyranoside (“Magenta-gal,” BioSynth AG, Switzerland), allow LacZ^+ cells to appear red instead of blue and thus easily distinguishable from Z-ara positive cells.
(§2) To determine whether α-L-arabinofuranosidase and β-galactosidase could be detected both in the same cell, NHI 3T3 cells were co-transfected with CMV-abfA and with proBGN (7), a plasmid encoding the lacZ gene tagged with a nuclear localization signal. […] One day after transfection cells were fixed followed by in situ visualization of β-galactosidase and α-L-arabinofuranosidase activities by incubation with 0.02% Magenta-gal and 0.02% Z-ara, respectively. Imaging was with a Leica DMR microscope mounted with an Optronics Magnafire digital camera.

[2] = solubility of the chromogen in water; assay type: physicochemical; settings: unhydrolysed chromogen; forms insoluable blue precipitate upon hydrolysis
[3] = biological target: T1, α-L-arabinofuranosidase (S. lividans abfA gene) expressed in NIH 3T3 cells (Streptomyces lividans, UniProt P53627); assay: histochemical (in situ) detection of abfA expression in transfected mammalian cells with chromogenic substrate; assay type: cell-based; settings: for color of cells expressing abfA after staining with the substrate: NIH 3T3 cells transfected with CMV-abfA, fixed 30 hours later, substrate 0.02% in lacZ detection protocol
T1 construct: expressed in transfected cells; host or cells: NIH 3T3 cells transfected with CMV-abfA (pcDNA3 backbone)
T1 sequence (P53627 1-662): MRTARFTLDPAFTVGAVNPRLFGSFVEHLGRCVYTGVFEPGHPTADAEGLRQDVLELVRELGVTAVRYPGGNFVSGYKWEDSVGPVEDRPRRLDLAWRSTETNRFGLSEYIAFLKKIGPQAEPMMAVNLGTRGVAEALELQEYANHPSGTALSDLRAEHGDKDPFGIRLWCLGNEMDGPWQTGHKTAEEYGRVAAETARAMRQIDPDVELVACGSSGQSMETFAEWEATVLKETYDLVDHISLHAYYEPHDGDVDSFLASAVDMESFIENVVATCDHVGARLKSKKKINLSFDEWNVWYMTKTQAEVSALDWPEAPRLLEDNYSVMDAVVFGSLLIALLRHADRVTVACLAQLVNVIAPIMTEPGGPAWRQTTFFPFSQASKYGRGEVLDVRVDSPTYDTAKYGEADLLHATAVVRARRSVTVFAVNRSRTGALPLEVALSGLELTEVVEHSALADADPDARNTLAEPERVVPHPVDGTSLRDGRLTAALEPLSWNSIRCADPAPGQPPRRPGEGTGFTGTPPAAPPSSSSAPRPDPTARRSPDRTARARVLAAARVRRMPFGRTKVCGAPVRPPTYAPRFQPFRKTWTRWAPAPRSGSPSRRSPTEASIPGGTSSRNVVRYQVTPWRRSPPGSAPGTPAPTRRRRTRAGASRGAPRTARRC
Method: as §1
One feature of the Z-ara substrate is that the 5-bromo-3-indoloxyl-derived final product has birefringent properties.
as §2

5-bromo-6-chloro-3-indolyl-β-D-galactopyranoside [Magenta-gal]
color of cells expressing lacZ after staining with the substrate [1]: red
staining from lacZ expression in co-transfected cells (dual detection) ([1]; NIH 3T3 co-transfected with CMV-abfA and proBGN (nuclear-localizing β-galactosidase), one day after transfection, 0.02% substrate, FIGS. 2(C), 2(D)): red nucleus

OC[C@H]1O[C@@H](Oc2c[nH]c3cc(Cl)ccc23)[C@H](O)[C@@H](O)[C@H]1O [Red-gal, 6-chloro-3-indolyl-β-D-galactopyranaside]
color of cells expressing lacZ after staining with the substrate [1]: red

OC[C@H]1O[C@@H](Oc2c[nH]c3ccc(Br)c(Cl)c23)[C@H](O)[C@@H](O)[C@H]1O [X-gal, 5-bromo-4-chloro-3-indolyl-β-D-galactosidase]
solubility in water [2]: water-soluable
color of cells expressing abfA after staining with the substrate [3]: no color change; also recorded: no blue staining

OC[C@H]1O[C@@H](Oc2c[nH]c3ccc(Br)cc23)C(O)C1O (stereo partly drawn) [Z-ara, 5-bromo-3-indolyl-α-arabinofuranoside]
color of cells expressing lacZ after staining with the substrate [1]: remain colorless
solubility in water [2]: water-soluable
subcellular location of staining in abfA-expressing cells ([3]; NIH 3T3, CMV-abfA, FIG. 2(A)): predominantly cytoplasmic
appearance of stained AbfA+ cells under polarized light ([3]; NIH 3T3, CMV-abfA, polarized light, FIG. 2(B)): distinct yellow birefringence
color of cells expressing abfA after staining with the substrate [3]: dark blue
staining from abfA expression in co-transfected cells (dual detection) ([3]; NIH 3T3 co-transfected with CMV-abfA and proBGN, one day after transfection, 0.02% substrate, FIGS. 2(C), 2(D)): blue cytoplasm
